Measured values as given in patent US9434763B2, “Derivatives of pyridinone as inhibitors for tissue transglutaminase” (ZEDIRA GMBH, priority 2012, dated 2016).

Tests used:
[1] = target: T1, TG1 (transglutaminase 1) (Homo sapiens, UniProt P22735); assay: Comparative transglutaminase selectivity assay with casein and dansylcadaverine as substrates: TG1; assay type: biochemical; conditions: casein as substrate
T1 construct: purchased Zedira T009
T1 sequence (P22735 1-817): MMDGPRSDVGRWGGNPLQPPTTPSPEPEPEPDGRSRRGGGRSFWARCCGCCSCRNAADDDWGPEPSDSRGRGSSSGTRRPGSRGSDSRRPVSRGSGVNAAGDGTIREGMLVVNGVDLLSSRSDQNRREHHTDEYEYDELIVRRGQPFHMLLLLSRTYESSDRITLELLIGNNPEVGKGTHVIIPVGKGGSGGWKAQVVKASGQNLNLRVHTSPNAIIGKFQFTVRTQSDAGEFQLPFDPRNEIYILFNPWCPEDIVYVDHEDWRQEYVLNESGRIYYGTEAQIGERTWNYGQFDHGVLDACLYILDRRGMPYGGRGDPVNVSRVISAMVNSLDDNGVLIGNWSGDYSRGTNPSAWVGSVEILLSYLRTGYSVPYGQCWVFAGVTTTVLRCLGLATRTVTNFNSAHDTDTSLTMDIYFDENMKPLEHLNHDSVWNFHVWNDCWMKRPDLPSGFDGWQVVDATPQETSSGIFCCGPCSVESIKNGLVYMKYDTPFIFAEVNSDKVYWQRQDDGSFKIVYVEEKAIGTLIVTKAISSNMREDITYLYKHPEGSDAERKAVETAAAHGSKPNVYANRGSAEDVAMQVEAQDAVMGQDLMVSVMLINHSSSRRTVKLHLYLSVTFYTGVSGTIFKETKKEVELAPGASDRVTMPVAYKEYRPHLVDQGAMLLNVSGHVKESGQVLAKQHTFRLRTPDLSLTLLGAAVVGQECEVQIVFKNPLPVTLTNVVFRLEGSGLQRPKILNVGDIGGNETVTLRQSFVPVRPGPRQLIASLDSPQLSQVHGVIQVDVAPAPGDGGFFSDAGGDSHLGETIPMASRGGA
Description: The comparative determination of different transglutaminases to determine the selectivity was made with casein and dansylcadaverine as substrates. Therefore, the kit T036 (Zedira, Darmstadt; Refs: Lorand et al, Anal Biochem, 1971, 44:221-31) as well as transglutaminase products T009 (transglutaminase 1), T012 (transglutaminase 3), T021 (transglutaminase 6) and T027 (plasma transglutaminase, factor XIII) are used. Therefore, two different IC50 values for the compounds are given.
The evaluation of the resulting enzyme activity is done using the slope of the straight line obtained by the increase in fluorescence.
To determine the non-inhibited enzyme activity, DMSO instead of inhibitor stock solution is used. IC50 values are determined by plotting the resulting enzyme activity against the logarithm of the inhibitor concentration. IC50 is defined as the concentration of inhibitor resulting in 50% of enzyme activity.
It should be noted that it was measured here against casein as substrate, which is why other apparent inhibition values (IC50 value) result.

[2] = target: T2, His tagged recombinant human tissue transglutaminase (His6-rh-TG2) (Homo sapiens, UniProt P21980); assay: Inactivation of human tissue transglutaminase, fluorescence assay with Abz-APE(CAD-DNP)QEA-OH; assay type: biochemical; conditions: substrate Abz-APE(CAD-DNP)QEA-OH, 37° C., pH=7.5
T2 construct: purchased Zedira T002
T2 sequence (P21980 1-687): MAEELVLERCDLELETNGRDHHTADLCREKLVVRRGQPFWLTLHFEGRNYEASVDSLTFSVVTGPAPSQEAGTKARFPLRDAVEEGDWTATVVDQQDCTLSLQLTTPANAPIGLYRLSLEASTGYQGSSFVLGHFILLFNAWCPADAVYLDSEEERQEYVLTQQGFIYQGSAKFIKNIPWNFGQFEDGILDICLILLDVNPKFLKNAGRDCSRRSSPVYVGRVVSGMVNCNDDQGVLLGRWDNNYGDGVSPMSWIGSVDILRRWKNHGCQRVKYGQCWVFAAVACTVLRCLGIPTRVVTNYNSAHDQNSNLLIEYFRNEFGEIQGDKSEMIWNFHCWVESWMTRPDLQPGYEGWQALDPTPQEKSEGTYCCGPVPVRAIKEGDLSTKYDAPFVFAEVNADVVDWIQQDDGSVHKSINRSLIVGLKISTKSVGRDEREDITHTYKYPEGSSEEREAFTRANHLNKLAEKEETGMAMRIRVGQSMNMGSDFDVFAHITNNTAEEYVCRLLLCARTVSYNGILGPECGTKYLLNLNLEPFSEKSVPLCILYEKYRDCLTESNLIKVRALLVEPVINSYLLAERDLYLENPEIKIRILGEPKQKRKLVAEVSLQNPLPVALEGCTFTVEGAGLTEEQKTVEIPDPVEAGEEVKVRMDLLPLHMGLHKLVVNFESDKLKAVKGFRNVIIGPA
In short: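 His6-rh-TG2 (10 μg per assay) was preincubated 5 min at 37 °C with inhibitor in Tris/CaCl2/PEG8000/DTT/glycine methyl ester assay solution (50 μM Abz-APE(CAD-DNP)QEA-OH), pH 7.5, DMSO <0.2%. Fluorescence (ex 313/em 418 nm) read over 15–30 min and activity taken from the slope. IC50 from activity vs log inhibitor concentration.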

Compound	IC50 [1] [µM]	IC50 [2] [nM]
CCOC(=O)/C=C/CC[C@H](NC(=O)c1cncn1C)C(=O)Nc1cccn(CC(=O)NCCC(C)C)c1=O [A19, (S,E)-Ethyl 7-(1-(2-(isopentylamino)-2-oxoethyl)-2-oxo-1,2-dihydropyridin-3-ylamino)-6-(1-methyl-1H-imidazole-5-carboxamido)-7-oxohept-2-enoate]	96	80
CCOC(=O)/C=C/CC[C@H](NC(=O)CCC(=O)O)C(=O)Nc1cccn(CC(=O)NCC(CC)CC)c1=O [A30, (S,E)-4-(7-Ethoxy-1-(1-(2-(2-ethylbutylamino)-2-oxoethyl)-2-oxo-1,2-dihydropyridin-3-ylamino)-1,7-dioxohept-5-en-2-ylamino)-4-oxobutanoic acid]	113	116
CCOC(=O)/C=C/CC[C@H](NC(C)=O)C(=O)Nc1cccn(CC(=O)NCCC(CC)CC)c1=O [A42, (S,E)-ethyl 6-acetamido-7-(1-(2-(3-ethylpentylamino)-2-oxoethyl)-2-oxo-1,2-dihydropyridin-3-ylamino)-7-oxohept-2-enoate]	86	147
CC[C@@H](C)[C@H](NC(=O)Cn1cccc(NC(=O)[C@H](CC/C=C/C(=O)OC)NC(=O)c2cncn2C)c1=O)C(=O)O [A60, (2S,3R)-2-(2-(3-((S,E)-7-Methoxy-2-(1-methyl-1H-imidazole-5-carboxamido)-7-oxohept-5-enamido)-2-oxopyridin-1(2H)-yl)acetamido)-3-methylpentanoic acid]	31.1	54
CCOC(=O)/C=C/CC[C@H](NC(C)=O)C(=O)Nc1cccn(CC(=O)NCC(CC)CC)c1=O [A62, (S,E)-Ethyl 6-acetamido-7-(1-(2-(2-ethylbutylamino)-2-oxoethyl)-2-oxo-1,2-dihydropyridin-3-ylamino)-7-oxohept-2-enoate]	133	93
CCC(CC)CNC(=O)Cn1cccc(NC(=O)[C@H](CC/C=C/C(=O)OC)NC(=O)c2cncn2C)c1=O [A63, (S,E)-Methyl 7-(1-(2-(2-ethylbutylamino)-2-oxoethyl)-2-oxo-1,2-dihydropyridin-3-ylamino)-6-(1-methyl-1H-imidazole-5-carboxamido)-7-oxohept-2-enoate]	51.8	45
COC(=O)/C=C/CC[C@H](NC(C)=O)C(=O)Nc1cccn(CC(=O)N2CCC(C(F)(F)F)CC2)c1=O [A65, (S,E)-Methyl 6-acetamido-7-oxo-7-(2-oxo-1-(2-oxo-2-(4-(trifluoromethyl)piperidin-1-yl)ethyl)-1,2-dihydropyridin-3-ylamino)hept-2-enoate]	120	132
CCC(CC)CNC(=O)Cn1cccc(NC(=O)[C@H](CC/C=C/C(=O)OC)NC(C)=O)c1=O [A79, (S,E)-Methyl 6-acetamido-7-(1-(2-(2-ethylbutylamino)-2-oxoethyl)-2-oxo-1,2-dihydropyridin-3-ylamino)-7-oxohept-2-enoate]	80.7	34

Further compounds by falling IC50 [1], results first:

IC50 [1] [µM]	IC50 [2] [nM]	Compound
122	141	COC(=O)/C=C/CC[C@H](NC(C)=O)C(=O)Nc1cccn(CC(=O)N2CCCC(C)C2)c1=O (stereo partly drawn) [A64, (6S,E)-Methyl 6-acetamido-7-(1-(2-(3-methylpipendin-1-yl)-2-oxoethyl)-2-oxo-1,2-dihydropyridin-3-ylamino)-7-oxohept-2-enoate]
97.5	–	CCOC(=O)/C=C/CC[C@H](NC(=O)c1cncn1C)C(=O)Nc1cccn(CC(=O)NCC(CC)CC)c1=O [A58, (S,E)-Ethyl 7-(1-(2-(2-ethylbutylamino)-2-oxoethyl)-2-oxo-1,2-dihydropyridin-3-ylamino)-6-(1-methyl-1H-imidazole-5-carboxamido)-7-oxohept-2-enoate]
91.9	173	CCOC(=O)/C=C/CC[C@H](NC(=O)CCC(=O)O)C(=O)Nc1cccn(CC(=O)NCCC(C)C)c1=O [A24, (S,E)-4-(7-Ethoxy-1-(1-(2-(isopentylamino)-2-oxoethyl)-2-oxo-1,2-dihydropyridin-3-ylamino)-1,7-dioxohept-5-en-2-ylamino)-4-oxobutanoic acid]
87.1	55	CCOC(=O)/C=C/CC[C@H](NC(C)=O)C(=O)Nc1cccn(CC(=O)N[C@H](C(=O)OC)[C@H](C)CC)c1=O [A35, (S,E)-ethyl 6-acetamido-7-(1-(2-((2S,3R)-1-methoxy-3-methyl-1-oxopentan-2-ylamino)-2-oxoethyl)-2-oxo-1,2-dihydropyridin-3-ylamino)-7-oxohept-2-enoate]
68.9	60	CCOC(=O)/C=C/CC[C@H](NC(=O)c1cncn1C)C(=O)Nc1cccn(CC(=O)N[C@H](C(=O)O)[C@H](C)CC)c1=O [A53, (2S,3R)-2-(2-(3-((S,E)-7-Ethoxy-2-(1-methyl-1H-imidazole-5-carboxamido)-7-oxohept-5-enamido)-2-oxopyridin-1(2H)-yl)acetamido)-3-methylpentanoic acid]
37.1	43	CCOC(=O)/C=C/CC[C@H](NC(=O)c1ccccc1)C(=O)Nc1cccn(CC(=O)N[C@H](C(=O)O)[C@H](C)CC)c1=O [A59, (2S,3R)-2-(2-(3-((S,E)-2-Benzamido-7-ethoxy-7-oxohept-5-enamido)-2-oxopyridin-1(2H)-yl)acetamido)-3-methylpentanoic acid]
28.8	–	CCOC(=O)/C=C/CC[C@H](NC(C)=O)C(=O)Nc1cccn(CC(=O)NCCC(C)C)c1=O [A7, (S,E)-Ethyl 6-acetamido-7-(1-(2-(isopentylamino)-2-oxoethyl)-2-oxo-1,2-dihydropyridin-3-ylamino)-7-oxohept-2-enoate]
28.1	–	COC(=O)/C=C/CC[C@H](NC(C)=O)C(=O)Nc1cccn(CC(=O)NCCC(C)C)c1=O [A29, (S,E)-methyl 6-acetamido-7-(1-(2-(isopentylamino)-2-oxoethyl)-2-oxo-1,2-dihydropyridin-3-ylamino)-7-oxohept-2-enoate]
15.3	–	CC[C@@H](C)[C@H](NC(=O)Cn1cccc(NC(=O)[C@H](CC/C=C/C(=O)OC)NC(=O)c2ccccc2)c1=O)C(=O)O [A61, (2S,3R)-2-(2-(3-((S,E)-2-benzamido-7-methoxy-7-oxohept-5-enamido)-2-oxopyridin-1(2H)-yl)acetamido)-3-methylpentanoic acid]
